Assays:
Test in all cases: MIC, antibacterial and synergistic activity
Assay type in all cases: cell-based
E. coli ATCC 25922 = E. coli ATCC 25922 (Wt); for MIC Aztreonam + inhibitor: Aztreonam + inhibitor at 4 µg/mL; for MIC Ceftazidime + inhibitor: Ceftazidime + inhibitor at 4 µg/mL; for MIC Meropenem + inhibitor: Meropenem + inhibitor at 4 µg/mL; for MIC: Escherichia coli, ATCC25922, substance alone
A. baumanii JMI 2659 = A. baumanii JMI 2659 (Ges-14 (Cpase)); for MIC Aztreonam + inhibitor: Aztreonam + inhibitor at 4 µg/mL; for MIC Ceftazidime + inhibitor: Ceftazidime + inhibitor at 4 µg/mL; for MIC Meropenem + inhibitor: Meropenem + inhibitor at 4 µg/mL; for MIC: Acinetobacter baumannii, JMI2659, substance alone, read-out: MIC
E.coli JMI 4103 = E.coli JMI 4103 (KPC-2, Tem-1, CMY-Type); for MIC Aztreonam + inhibitor: Aztreonam + inhibitor at 4 µg/mL; for MIC Ceftazidime + inhibitor: Ceftazidime + inhibitor at 4 µg/mL; for MIC Meropenem + inhibitor: Meropenem + inhibitor at 4 µg/mL; for MIC: Escherichia coli, JMI4103, substance alone
E. coli JMI 4080 = conditions: for MIC Aztreonam + inhibitor / MIC Ceftazidime + inhibitor / MIC Meropenem + inhibitor: E. coli JMI 4080 (Tem-10); for MIC Aztreonam + inhibitor: Aztreonam + inhibitor at 4 µg/mL; for MIC Ceftazidime + inhibitor: Ceftazidime + inhibitor at 4 µg/mL; for MIC Meropenem + inhibitor: Meropenem + inhibitor at 4 µg/mL; for MIC: Escherichia coli, JMI4080, E. coli JMI 4080 (Tem-10), substance alone
E. coli JMI 2692 = E. coli JMI 2692 (NDM-1, TEM-1, CTX-M-15); for MIC Aztreonam + inhibitor: Aztreonam + inhibitor at 4 µg/mL; for MIC Ceftazidime + inhibitor: Ceftazidime + inhibitor at 4 µg/mL; for MIC Meropenem + inhibitor: Meropenem + inhibitor at 4 µg/mL; for MIC: Escherichia coli, JMI2692, substance alone, read-out: MIC
Protocol: (§1) In the Tables 10 - 12, compounds herein disclosed were tested in combination with various antibiotics against metallo β-lactamase producing bacteria.

K. pneumo JMI 2693 = K. pneumo JMI 2693 (NDM-1 (Cpase)); for MIC Aztreonam + inhibitor: Aztreonam + inhibitor at 4 µg/mL; for MIC Ceftazidime + inhibitor: Ceftazidime + inhibitor at 4 µg/mL; for MIC Meropenem + inhibitor: Meropenem + inhibitor at 4 µg/mL; for MIC: substance alone
Protocol: as §1

P. aerug JMI 149 = P. aerug JMI 149 (Bla+++D+); for MIC Aztreonam + inhibitor: Aztreonam + inhibitor at 4 µg/mL; for MIC Ceftazidime + inhibitor: Ceftazidime + inhibitor at 4 µg/mL; for MIC Meropenem + inhibitor: Meropenem + inhibitor at 4 µg/mL; for MIC: substance alone, read-out: MIC
E. cloacae JMI 36 = E. cloacae JMI 36 (P99); for MIC Aztreonam + inhibitor: Aztreonam + inhibitor at 4 µg/mL; for MIC Ceftazidime + inhibitor: Ceftazidime + inhibitor at 4 µg/mL; for MIC Meropenem + inhibitor: Meropenem + inhibitor at 4 µg/mL; for MIC: Enterobacter cloacae, JMI36, substance alone, read-out: MIC

| Compound | MIC Aztreonam + inhibitor (E. coli ATCC 25922) | MIC Ceftazidime + inhibitor (E. coli ATCC 25922) [µg/mL] | MIC Meropenem + inhibitor (E. coli ATCC 25922) | MIC (E. coli ATCC 25922) [µg/mL] | MIC Aztreonam + inhibitor (A. baumanii JMI 2659) [µg/mL] | MIC Ceftazidime + inhibitor (A. baumanii JMI 2659) [µg/mL] | MIC Meropenem + inhibitor (A. baumanii JMI 2659) [µg/mL] | MIC (A. baumanii JMI 2659) [µg/mL] | MIC Aztreonam + inhibitor (E.coli JMI 4103) [µg/mL] | MIC Ceftazidime + inhibitor (E.coli JMI 4103) [µg/mL] | MIC Meropenem + inhibitor (E.coli JMI 4103) | MIC (E.coli JMI 4103) [µg/mL] | MIC Aztreonam + inhibitor (E. coli JMI 4080) [µg/mL] | MIC Ceftazidime + inhibitor (E. coli JMI 4080) [µg/mL] | MIC Meropenem + inhibitor (E. coli JMI 4080) | MIC (E. coli JMI 4080) [µg/mL] | MIC Aztreonam + inhibitor (E. coli JMI 2692) [µg/mL] | MIC Ceftazidime + inhibitor (E. coli JMI 2692) [µg/mL] | MIC Meropenem + inhibitor (E. coli JMI 2692) | MIC (E. coli JMI 2692) [µg/mL] | further results |
| --- | --- | --- | --- | --- | --- | --- | --- | --- | --- | --- | --- | --- | --- | --- | --- | --- | --- | --- | --- | --- | --- |
| CCC(=O)NNC(=O)[C@@H]1CC[C@@H]2CN1C(=O)N2OS(=O)(=O)O [Ex. 8, (2S,5R)-7-oxo-N'-propanoyl-6-(sulfooxy)-1,6-diazabicyclo[3.2.1]octane-2-carbohydrazide] | ≤0.0625 µg/mL | ≤0.25 | ≤0.0312 µg/mL | 16 | >4 | >16 | >2 | > 16 | ≤0.062 | ≤0.25 | ≤0.0312 µg/mL | 4 | ≤0.062 | ≤0.25 | ≤0.0312 µg/mL | 4 | ≤0.062 | ≤0.25 | 2 µg/mL | 4 | MIC Aztreonam + inhibitor (K. pneumo JMI 2693): 2 µg/mL; MIC Ceftazidime + inhibitor (K. pneumo JMI 2693): 8 µg/mL; MIC Meropenem + inhibitor (K. pneumo JMI 2693): 0.125 µg/mL; MIC (K. pneumo JMI 2693): > 16 µg/mL; MIC Aztreonam + inhibitor (P. aerug JMI 149): >4 µg/mL; MIC Ceftazidime + inhibitor (P. aerug JMI 149): >16 µg/mL; MIC Meropenem + inhibitor (P. aerug JMI 149): 0.5 µg/mL; MIC (P. aerug JMI 149): > 16 µg/mL; MIC Aztreonam + inhibitor (E. cloacae JMI 36): 0.125 µg/mL; MIC Ceftazidime + inhibitor (E. cloacae JMI 36): 0.5 µg/mL; MIC Meropenem + inhibitor (E. cloacae JMI 36): 0.25 µg/mL; MIC (E. cloacae JMI 36): > 16 µg/mL |
| O=C(NO[C@H]1CCNC1)[C@@H]1CC[C@@H]2CN1C(=O)N2OS(=O)(=O)O [Ex. 1, (2S,5R)-7-Oxo-N-[(3S)-pyrrolidin-3-yloxy]-6-(sulfooxy)-1,6-diazabicyclo[3.2.1]octane-2-carboxamide] | ≤.062 µg/mL | ≤0.25 | ≤.031 µg/mL | 8 | >4 | >16 | 2 | > 16 | >4 | 8 | ≤.031 µg/mL | 16 | 1 | 1 | ≤.031 µg/mL | 8 | 0.25 | ≤0.25 | ≤.031 µg/mL | 4 | MIC Aztreonam + inhibitor (K. pneumo JMI 2693): 0.125 µg/mL; MIC Ceftazidime + inhibitor (K. pneumo JMI 2693): ≤0.25 µg/mL; MIC Meropenem + inhibitor (K. pneumo JMI 2693): 0.062 µg/mL; MIC (K. pneumo JMI 2693): > 16 µg/mL; MIC Aztreonam + inhibitor (P. aerug JMI 149): >4 µg/mL; MIC Ceftazidime + inhibitor (P. aerug JMI 149): 4 µg/mL; MIC Meropenem + inhibitor (P. aerug JMI 149): 0.5 µg/mL; MIC (P. aerug JMI 149): > 16 µg/mL; MIC Aztreonam + inhibitor (E. cloacae JMI 36): 0.25 µg/mL; MIC Ceftazidime + inhibitor (E. cloacae JMI 36): 1 µg/mL; MIC Meropenem + inhibitor (E. cloacae JMI 36): 0.062 µg/mL; MIC (E. cloacae JMI 36): > 16 µg/mL |
| O=C(NNC(=O)[C@H]1CC[C@H]2CN1C(=O)N2OS(=O)(=O)O)C1CNC1 (stereo in doubt) [Ex. 9, (2R,5S)-N'-(azetidin-3-ylcarbonyl)-7-oxo-6-(sulfooxy)-1,6-diazabicyclo[3.2.1]octane-2-carbohydrazide] | ≤0.06 µg/mL | ≤0.25 | ≤0.03 µg/mL | > 16 | >4 | 16 | 2 | > 16 | ≤0.06 | 0.5 | 0.06 µg/mL | 16 | ≤0.06 | 0.25 | ≤0.03 µg/mL | 16 | 1 | >16 | 0.125 µg/mL | 8 | MIC Aztreonam + inhibitor (K. pneumo JMI 2693): 0.25 µg/mL; MIC Ceftazidime + inhibitor (K. pneumo JMI 2693): ≤0.25 µg/mL; MIC Meropenem + inhibitor (K. pneumo JMI 2693): 0.125 µg/mL; MIC (K. pneumo JMI 2693): > 16 µg/mL; MIC Aztreonam + inhibitor (P. aerug JMI 149): >4 µg/mL; MIC Ceftazidime + inhibitor (P. aerug JMI 149): 16 µg/mL; MIC Meropenem + inhibitor (P. aerug JMI 149): 0.5 µg/mL; MIC (P. aerug JMI 149): 16 µg/mL; MIC Aztreonam + inhibitor (E. cloacae JMI 36): 0.25 µg/mL; MIC Ceftazidime + inhibitor (E. cloacae JMI 36): ≤0.25 µg/mL; MIC Meropenem + inhibitor (E. cloacae JMI 36): 0.06 µg/mL; MIC (E. cloacae JMI 36): > 16 µg/mL |
| O=C(NNC(=O)[C@H]1CC[C@H]2CN1C(=O)N2OS(=O)(=O)O)C1CC1 (stereo in doubt) [Ex. 7, (2R,5S)-N'-(cyclopropylcarbonyl)-7-oxo-6-(sulfooxy)-1,6-diazabicyclo[3.2.1]octane-2-carbohydrazide] | ≤0.0625 µg/mL | ≤0.25 | ≤0.0312 µg/mL | > 16 | >4 | >16 | >2 | > 16 | ≤0.062 | ≤0.25 | ≤0.0312 µg/mL | 2 | ≤0.062 | ≤0.25 | ≤0.0312 µg/mL | 4 | ≤0.062 | ≤0.25 | 0.5 µg/mL | 8 | MIC Aztreonam + inhibitor (K. pneumo JMI 2693): 1 µg/mL; MIC Ceftazidime + inhibitor (K. pneumo JMI 2693): 2 µg/mL; MIC Meropenem + inhibitor (K. pneumo JMI 2693): 0.25 µg/mL; MIC (K. pneumo JMI 2693): > 16 µg/mL; MIC Aztreonam + inhibitor (P. aerug JMI 149): >4 µg/mL; MIC Ceftazidime + inhibitor (P. aerug JMI 149): >16 µg/mL; MIC Meropenem + inhibitor (P. aerug JMI 149): >2 µg/mL; MIC (P. aerug JMI 149): > 16 µg/mL; MIC Aztreonam + inhibitor (E. cloacae JMI 36): 0.125 µg/mL; MIC Ceftazidime + inhibitor (E. cloacae JMI 36): 0.5 µg/mL; MIC Meropenem + inhibitor (E. cloacae JMI 36): 0.125 µg/mL; MIC (E. cloacae JMI 36): > 16 µg/mL |
| NCCONC(=O)[C@@H]1CC[C@@H]2CN1C(=O)N2OS(=O)(=O)O [Ex. 3, (2S,5R)-N-(2-Aminoethoxy)-7-oxo-6-(sulfooxy)-1,6-diazabicyclo[3.2.1]octane-2-carboxamide] | ≤0.062 µg/mL | ≤0.25 | ≤0.0312 µg/mL | 2 | >4 | >16 | 2 | > 16 | ≤0.062 | ≤0.25 | ≤0.0312 µg/mL | 4 | ≤0.062 | ≤0.25 | ≤0.0312 µg/mL | 2 | ≤0.062 | ≤0.25 | ≤0.0312 µg/mL | 2 | MIC Aztreonam + inhibitor (K. pneumo JMI 2693): 0.25 µg/mL; MIC Ceftazidime + inhibitor (K. pneumo JMI 2693): ≤0.25 µg/mL; MIC Meropenem + inhibitor (K. pneumo JMI 2693): ≤0.0312 µg/mL; MIC (K. pneumo JMI 2693): 8 µg/mL; MIC Aztreonam + inhibitor (P. aerug JMI 149): >4 µg/mL; MIC Ceftazidime + inhibitor (P. aerug JMI 149): 4 µg/mL; MIC Meropenem + inhibitor (P. aerug JMI 149): 0.25 µg/mL; MIC (P. aerug JMI 149): > 16 µg/mL; MIC Aztreonam + inhibitor (E. cloacae JMI 36): >4 µg/mL; MIC Ceftazidime + inhibitor (E. cloacae JMI 36): 0.5 µg/mL; MIC Meropenem + inhibitor (E. cloacae JMI 36): 0.062 µg/mL; MIC (E. cloacae JMI 36): > 16 µg/mL |

— patent publication EP2931723B1, “NEW BICYCLIC COMPOUNDS AND THEIR USE AS ANTIBACTERIAL AGENTS AND -LACTAMASE INHIBITORS” (Fedora Pharmaceuticals Inc., priority 2012, dated 2014)
